Results on four compounds are retold here after ChEMBL document CHEMBL5505978, “Novel estrogen receptor β/histone deacetylase dual-targeted near-infrared fluorescent probes as theranostic agents for imaging and treatment of prostate cancer” (Eur J Med Chem, 2024).

Activity calls are given as the source filed them. No cut-off for these calls is given here. A value given as a limit tells only on which side of the number the result lay.

Data set [1] relates to DU-145. The data set is described as follows: cells. It is filed as functional, cell-based. The settings on record: Homo sapiens.
Description: Antiproliferative activity against human DU-145 cells assessed as inhibition of cell growth incubated for 3 to 5 days by CCK-8 assay
The target in another data set is Histone deacetylase 1 (Homo sapiens, UniProt Q13547). The data set is described as follows: Inhibition of HDAC1 (unknown origin) preincubated with compound for 30 mins followed by substrate addition measured after 15 mins by fluorescence based assay.
Sequence of Histone deacetylase 1 (Q13547 whole entry): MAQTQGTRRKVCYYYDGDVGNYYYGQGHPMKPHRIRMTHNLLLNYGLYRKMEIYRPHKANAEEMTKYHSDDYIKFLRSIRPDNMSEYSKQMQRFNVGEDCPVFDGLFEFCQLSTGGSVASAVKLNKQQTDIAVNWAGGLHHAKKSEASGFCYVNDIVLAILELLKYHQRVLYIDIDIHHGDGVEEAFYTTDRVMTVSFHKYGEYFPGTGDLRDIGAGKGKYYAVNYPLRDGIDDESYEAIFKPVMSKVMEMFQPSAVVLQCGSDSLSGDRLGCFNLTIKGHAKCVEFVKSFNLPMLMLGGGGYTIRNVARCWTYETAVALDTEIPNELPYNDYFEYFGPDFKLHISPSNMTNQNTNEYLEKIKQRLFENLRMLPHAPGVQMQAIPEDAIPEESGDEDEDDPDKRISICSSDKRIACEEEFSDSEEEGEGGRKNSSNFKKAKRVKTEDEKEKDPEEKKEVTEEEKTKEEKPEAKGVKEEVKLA
The target in data set [2] is T1, Protein deacetylase HDAC6 (Homo sapiens, UniProt Q9UBN7).
T1 sequence (Q9UBN7 whole entry): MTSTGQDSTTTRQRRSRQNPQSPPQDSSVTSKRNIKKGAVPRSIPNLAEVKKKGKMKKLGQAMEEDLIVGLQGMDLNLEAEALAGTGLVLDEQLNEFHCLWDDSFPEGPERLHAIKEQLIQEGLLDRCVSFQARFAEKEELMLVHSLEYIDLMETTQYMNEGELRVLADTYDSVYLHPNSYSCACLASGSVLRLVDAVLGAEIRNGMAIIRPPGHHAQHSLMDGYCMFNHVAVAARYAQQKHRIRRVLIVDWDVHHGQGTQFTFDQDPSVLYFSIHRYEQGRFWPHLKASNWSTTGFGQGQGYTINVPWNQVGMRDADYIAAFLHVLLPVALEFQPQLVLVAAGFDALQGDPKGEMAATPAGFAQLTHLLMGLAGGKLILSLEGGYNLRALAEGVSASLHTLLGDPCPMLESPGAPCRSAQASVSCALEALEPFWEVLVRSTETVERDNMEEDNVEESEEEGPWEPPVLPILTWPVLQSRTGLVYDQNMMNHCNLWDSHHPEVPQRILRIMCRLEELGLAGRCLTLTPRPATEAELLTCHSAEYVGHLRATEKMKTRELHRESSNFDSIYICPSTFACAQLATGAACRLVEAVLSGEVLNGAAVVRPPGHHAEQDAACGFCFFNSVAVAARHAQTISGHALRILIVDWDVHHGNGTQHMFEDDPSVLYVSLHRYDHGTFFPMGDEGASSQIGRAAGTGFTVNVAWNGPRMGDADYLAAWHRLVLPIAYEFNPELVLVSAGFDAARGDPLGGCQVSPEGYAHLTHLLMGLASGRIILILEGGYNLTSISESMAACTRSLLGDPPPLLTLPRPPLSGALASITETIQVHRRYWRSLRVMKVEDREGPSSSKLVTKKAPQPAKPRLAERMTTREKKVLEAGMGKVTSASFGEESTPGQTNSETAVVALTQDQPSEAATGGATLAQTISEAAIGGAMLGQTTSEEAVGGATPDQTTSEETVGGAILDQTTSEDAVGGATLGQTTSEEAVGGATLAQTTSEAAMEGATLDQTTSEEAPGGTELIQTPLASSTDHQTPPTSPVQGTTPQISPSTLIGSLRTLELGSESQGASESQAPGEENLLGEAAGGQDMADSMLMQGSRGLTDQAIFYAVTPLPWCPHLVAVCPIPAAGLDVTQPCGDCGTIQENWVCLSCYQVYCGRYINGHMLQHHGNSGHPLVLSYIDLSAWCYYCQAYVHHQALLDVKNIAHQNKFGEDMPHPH
Briefly: Inhibition of HDAC6 (unknown origin) preincubated with compound for 30 mins followed by substrate addition measured after 15 mins by fluorescence based assay.

Data set [3] addresses Estrogen receptor beta (Homo sapiens) (UniProt Q92731). The data set is described as follows: Binding affinity to ERbeta in human DU-145 cells assessed as increase in intracellular fluorescence signal at 10 uM incubated for 30 mins by imaging analysis. It is filed as cell-based. The settings on record: filed as agonist.
Data set [4] shares this target. Briefly: Binding affinity to ERbeta in human DU-145 cells assessed as increase in intracellular fluorescence signal at 10 uM incubated for 30 mins in presence of estradiol by imaging analysis. It is filed as cell-based.
The target is the same in data set [5]. Briefly: Binding affinity to ERbeta in human DU-145 cells assessed as increase in intracellular fluorescence signal at 10 uM incubated for 1 hr in presence of SAHA by imaging analysis. It is filed as cell-based.
Data set [6] in a line: Drug uptake in human DU-145 cells assessed as colocalization in nucleus by measuring fluorescence signal at 10 uM incubated for 30 mins by DAPI staining based fluorescence imaging analysis. Format: ADME, cell-based. The settings on record: du-145, 0.5 h.
Data set [7] can be described thus: Drug uptake in human DU-145 cells assessed as colocalization in […] by measuring fluorescence signal at 10 uM incubated for 30 mins by Mito-Tracker Green staining based fluorescence imaging analysis. It is filed as ADME, cell-based. Conditions: du-145, 0.5 h.
Data set [8] concerns the target Estrogen receptor beta (Homo sapiens) (UniProt Q92731). The data set is described as follows: Binding affinity to ERbeta in human DU-145 cells at 10 uM incubated for 30 mins by immunofluorescence based assay. It is filed as cell-based. The settings on record: filed as agonist.
In data set [9] the target is T2, Protein deacetylase HDAC6 (Homo sapiens) (UniProt Q9UBN7).
T2 sequence (whole entry): T1 sequence (Q9UBN7 whole entry)
Briefly: Binding affinity to HDAC6 in human DU-145 cells at 10 uM incubated for 30 mins by Alexa Fluor 488 staining based immunofluorescence based assay. It is filed as cell-based. Conditions: filed as agonist.

Data set [10] can be described thus: Drug uptake in Balb/c mouse xenografted with human DU-145 cells assessed as increase in fluorescence intensity in tumor at 0.5 mg/kg,ip administration and measured upto 24 hrs by imaging analysis. It is filed as ADME, organism-based. Conditions: in vivo. (A xenograft is tissue or cells of one species grown in another, often human tumour cells in immunodeficient mice.)

Data set [11] is described as follows: Drug uptake in Balb/c mouse xenografted with human DU-145 cells assessed as increase in fluorescence intensity in tumor at 0.5 mg/kg,ip administration and measured at 12 hrs by imaging analysis. Format: ADME, organism-based. The settings on record: in vivo.
The nature of data set [12]: Drug uptake in Balb/c mouse xenografted with human DU-145 cells assessed as increase in fluorescence intensity in tumor at 0.5 mg/kg,ip administration and measured at 17 hrs by imaging analysis. It is filed as ADME, organism-based. Conditions: in vivo.
Data set [13] in a line: Drug uptake in Balb/c mouse xenografted with human DU-145 cells assessed as increase in fluorescence intensity in tumor tissue at 0.5 mg/kg,ip administration and measured at 17 hrs by imaging analysis. It is filed as ADME, organism-based, Neoplasm. The settings on record: in vivo.
Data set [14] can be described thus: Drug uptake in Balb/c mouse xenografted with human DU-145 cells assessed as increase in fluorescence intensity in liver at 0.5 mg/kg,ip administration and measured at 17 hrs by imaging analysis. Format: ADME, organism-based. Conditions: in vivo.
Data set [15] in a line: Drug uptake in Balb/c mouse xenografted with human DU-145 cells assessed as increase in fluorescence intensity in kidney at 0.5 mg/kg,ip administration and measured at 17 hrs by imaging analysis. Format: ADME, organism-based. Conditions: in vivo.
Data set [16] is described as follows: Drug uptake in Balb/c mouse xenografted with human DU-145 cells assessed as increase in fluorescence intensity in tumor tissue at 0.5 mg/kg,ip administration and measured at 24 hrs by imaging analysis. It is filed as ADME, organism-based, Neoplasm. Conditions: in vivo.
Data set [17] in a line: Drug uptake in Balb/c mouse xenografted with human DU-145 cells assessed as increase in fluorescence intensity in tumor tissue at 0.5 mg/kg,ip administration and measured at 36 hrs by imaging analysis. It is filed as ADME, organism-based, Neoplasm. The settings on record: in vivo.
The subject of data set [18] is DU-145. Briefly: Antitumor activity against human DU-145 cells xenografted in Balb/c mouse assessed as reduction in tumor weight at 10 mg/kg,ip administration once every 2 days for 20 days. It is filed as functional, organism-based. The settings on record: time 20.0 day.
Data set [19] concerns DU-145. Briefly: Antitumor activity against human DU-145 cells xenografted in Balb/c mouse assessed as reduction in tumor volume at 10 mg/kg,ip administration once every 2 days for 20 days. It is filed as functional, organism-based. The settings on record: time 20.0 day.
Data set [20] concerns DU-145. The data set is described as follows: Antitumor activity against human DU-145 cells xenografted in Balb/c mouse assessed as inhibition of tumor growth at 10 mg/kg,ip administration once every 2 days for 20 days. Format: functional, organism-based. The settings on record: time 20.0 day.
Data set [21] in a line: Toxicity in Balb/c mouse xenografted with human DU-145 cells assessed as animal death at 10 mg/kg,ip administration once every 2 days for 20 days. Format: organism-based. Conditions: in vivo, 480 h, time 20 day.
A short description of data set [22]: Toxicity in Balb/c mouse xenografted with human DU-145 cells assessed as change in body weight at 10 mg/kg,ip administration once every 2 days for 20 days. Format: organism-based. The settings on record: in vivo, 480 h, time 20 day.
The nature of a further data set: in vitro. The settings on record: green monkey (Chlorocebus sabaeus), Vero cells.

Sequence of Estrogen receptor beta (Homo sapiens) (Q92731 whole entry): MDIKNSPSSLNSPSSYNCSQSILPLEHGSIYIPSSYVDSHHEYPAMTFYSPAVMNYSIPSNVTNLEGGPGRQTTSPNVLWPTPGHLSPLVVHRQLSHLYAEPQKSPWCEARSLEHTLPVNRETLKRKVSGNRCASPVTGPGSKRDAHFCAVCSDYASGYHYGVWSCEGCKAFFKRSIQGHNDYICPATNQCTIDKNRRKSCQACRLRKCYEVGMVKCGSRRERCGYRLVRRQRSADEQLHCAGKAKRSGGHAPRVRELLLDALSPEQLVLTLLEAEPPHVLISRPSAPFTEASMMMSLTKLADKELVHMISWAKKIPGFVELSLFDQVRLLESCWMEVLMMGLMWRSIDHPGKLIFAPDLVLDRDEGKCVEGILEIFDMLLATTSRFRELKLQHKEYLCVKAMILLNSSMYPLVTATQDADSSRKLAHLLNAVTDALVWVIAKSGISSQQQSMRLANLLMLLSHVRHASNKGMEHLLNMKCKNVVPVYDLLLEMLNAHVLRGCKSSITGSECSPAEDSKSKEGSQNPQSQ
Description for in vitro: Antiproliferative activity against green monkey Vero cells assessed as inhibition of cell growth incubated for 3 to 5 days by CCK-8 assay

In general, IC50 refers to the concentration that inhibits the measured activity by half. On to `N#CC(C#N)=C1C=C(/C=C/c2ccc(O)c(NC(=O)CCCCCCC(=O)NO)c2)Oc2ccccc21`, for which the IC50 in the data set with DU-145 [1] was 0.96 µM; at Histone deacetylase 1, “Not Active”; in data set [2] it was 0.052 µM; in the data set “in vitro”, 6.13 µM. The result (in data set [3]; in the data set with DU-145 [18]; with DU-145 [19]; in the data set on DU-145 [20]) was Active. Besides, the outcome in data set [4] and in data set [5] was inactive. Further, the Drug uptake result in data set [6], in data set [7], in data set [10], in [11], in data set [12] and in data set [13] was “Active” each time. Moreover, the Drug uptake entry in data set [14], in [15], in [16] and in [17] was “Not Active” in each case. Also, the Activity in data set [8] was 90.8%; in [9] it was 76.7%; in data set [21], “Non-Toxic”; in data set [22], “Non-Toxic”.
Take `O=C(CCCCCCC(=O)Nc1ccccc1)NO`: the outcome with DU-145 [18] and in the data set with DU-145 [19] was Active.
`N#CC(C#N)=C1C=C(/C=C/c2ccc(O)cc2)Oc2ccc(O)cc21`: the results for the IC50 in the data set with DU-145 [1] and in “in vitro” were 0.27 µM and 1.45 µM, respectively.
In the case of `N#CC(C#N)=C1C=C(/C=C/c2ccc(O)c(NC(=O)CCCCCCC(=O)NO)c2)Oc2ccc(O)cc21`, the IC50 in the data set with DU-145 [1] was 15.3 µM; at Histone deacetylase 1, “Not Active”; in [2], 2.36 µM; in the data set “in vitro”, above 100 µM. For the same compound, the Drug uptake entry in [6] and in data set [7] was “Active” in each case. Also, the Activity amounted to 96.3% in [8] and 97.6% in data set [9].
